Measurements taken from ChEMBL document CHEMBL1201862, “PubChem BioAssay data set” (2004).
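Results reflect a 48-hour exposure of cells in 96-well plates to compound at five concentrations. At the GI50, growth is halved.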 The source made the active and inactive calls. Rule as the data show it: active = GI50 up to about 1.1 µM and inactive = higher.

What was measured:
Experiment in all cases: growth of human tumour cells (NCI), 48 h
[1] = system: 786-0
[2] = system: A549
[3] = system: CAKI-1
[4] = system: CCRF-CEM
[5] = system: COLO 205
[6] = system: DU-145
[7] = system: EKVX
[8] = system: HCC 2998
[9] = system: HCT-15
[10] = system: HL-60
[11] = system: HOP-62
[12] = system: HT-29
[13] = system: IGROV-1
[14] = system: K562
[15] = system: KM12
[16] = system: LOX IMVI
[17] = system: M14
[18] = system: MCF7
[19] = system: MDA-N
[20] = system: MOLT-4
[21] = system: Malme-3M
[22] = system: NCI-H23
[23] = system: OVCAR-8
[24] = system: PC-3
[25] = system: RPMI-8226
[26] = system: SF-268
[27] = system: SF-295
[28] = system: SK-MEL-28
[29] = system: SK-MEL-5
[30] = system: SK-OV-3
[31] = system: SN12C
[32] = system: SNB-75
[33] = system: SR
[34] = system: SW-620
[35] = system: T47D
[36] = system: TK-10
[37] = system: UACC-257
[38] = system: UACC-62
[39] = system: A498
[40] = system: HCT-116
[41] = system: HOP-92
[42] = system: NCI-H226
[43] = system: NCI-H460
[44] = system: NCI/ADR-RES
[45] = system: SK-MEL-2
[46] = system: SNB-19
[47] = system: U-251
[48] = system: UO-31

With COc1ccc(C2=C(OC(=O)N(C)C)c3cccn3-c3cc(C(F)(F)F)ccc3S2)cc1 the GI50 [1] was > 10 µM (inactive), the GI50 [2] was > 10 µM (inactive) and the GI50 [3] was > 10 µM (inactive). For the same compound, the GI50 [4] was > 10 µM (inactive), the GI50 [5] was > 10 µM (inactive) and the GI50 [6] was > 10 µM (inactive). For the same compound, the GI50 [7] was > 10 µM (inactive), the GI50 [8] was > 10 µM (inactive) and the GI50 [9] was > 10 µM. The GI50 [10] was 6.03 µM (inactive), the GI50 [11] was > 10 µM (inactive) and the GI50 [12] was > 10 µM (inactive). The GI50 [13] was > 10 µM (inactive), the GI50 [14] was > 10 µM (inactive) and the GI50 [15] was 0.467 µM (active). For the same compound, the GI50 [16] was > 10 µM (inactive), the GI50 [17] was > 10 µM (inactive) and the GI50 [18] was 9.29 µM (inactive). The GI50 [19] was > 10 µM (inactive), the GI50 [20] was 4.79 µM (inactive) and the GI50 [21] was > 10 µM (inactive). For the same compound, the GI50 [22] was 8.81 µM (inactive), the GI50 [23] was > 10 µM (inactive) and the GI50 [24] was 4.3 µM (inactive). The GI50 [25] was 3.75 µM (inactive), the GI50 [26] was > 10 µM (inactive) and the GI50 [27] was > 10 µM (inactive). For the same compound, the GI50 [28] was > 10 µM (inactive), the GI50 [29] was > 10 µM (inactive) and the GI50 [30] was > 10 µM (inactive). The GI50 [31] was > 10 µM (inactive), the GI50 [32] was > 10 µM (inactive) and the GI50 [33] was 4.99 µM (inactive). The GI50 [34] was > 10 µM (inactive), the GI50 [35] was 3.47 µM (inactive) and the GI50 [36] was > 10 µM (inactive). The GI50 [37] was > 10 µM (inactive) and the GI50 [38] was > 10 µM (inactive).
For CN1C/C(=C\c2ccccc2[N+](=O)[O-])C(=O)/C(=C/c2ccccc2[N+](=O)[O-])C1, the GI50 [1] was 0.192 µM (active), the GI50 [39] was 1.93 µM (inactive) and the GI50 [2] was 3.43 µM (inactive). For the same compound, the GI50 [5] was 0.164 µM (active), the GI50 [6] was 1.51 µM (inactive) and the GI50 [8] was 1.45 µM (inactive). The GI50 [40] was 0.215 µM (active), the GI50 [9] was 0.251 µM and the GI50 [10] was 0.0796 µM (active). The GI50 [11] was 2.95 µM (inactive), the GI50 [41] was 1.09 µM (active) and the GI50 [13] was 0.442 µM (active). For the same compound, the GI50 [15] was 1.24 µM (inactive), the GI50 [18] was 0.408 µM (active) and the GI50 [20] was 0.192 µM (active). The GI50 [42] was 3.09 µM (inactive), the GI50 [43] was 2.57 µM (inactive) and the GI50 [44] was 1.55 µM (inactive). For the same compound, the GI50 [24] was 1.14 µM (inactive), the GI50 [45] was 2.09 µM (inactive) and the GI50 [29] was 1.32 µM (inactive). The GI50 [30] was 2.75 µM (inactive), the GI50 [46] was 6.1 µM (inactive) and the GI50 [32] was 1.86 µM (inactive). The GI50 [34] was 0.173 µM (active), the GI50 [36] was 0.893 µM (active) and the GI50 [47] was 1.7 µM (inactive). For the same compound, the GI50 [38] was 1.31 µM (inactive) and the GI50 [48] was 0.373 µM (active).
